Test results reported in patent US20110144029A1, “Model Systems and Materials for the Study and Treatment of Neurodegenerative Diseases” (BOARD OF REGENTS, THE UNIVERSITY OF TEXAS SYSTEM, priority 2009, published 2011).
“Also recorded” adds a separate entry of the source. Where a SMILES comes first, the peptide text is derived from it. [ ]: non-standard residue; d: D form.

Assays:
[1] = previously shown [19, 20]; cited from earlier work
[2] = test system: cerebellar granule neurons; assay: Live/Dead (Red/Green) viability assay in cultured cerebellar granule neurons; type: cell-based, rat; settings: 24 h peptide treatment, HK medium
Method: Neuronal cultures were switched to serum-free medium T-peptide, K-peptide, Core-peptide, V-peptide. VV-peptide, and T (L)-peptide. All peptides were used at 25 μM concentration. Phase contrast micrographs show appearance of the cultures after 24 h of peptide treatment. The Live/Dead viability assay was also performed. Nuclei of dead cells are stained red whereas cytoplasm of living cells are stained green. In the case of sick and dying cells, green staining is condensed;
(§1) Cerebellar granule neurons were switched to serum-free medium containing various concentrations of T-peptide, K-peptide, Core-peptide, V-peptide, VV-peptide, and T (L)-peptide. Cell viability was measured using two independent methods 24 h after peptide treatment and results are graphed. * indicates p<0.05 compared with control cells that were treated with HK: (4A) Results from Red/Green viability assay, (4B) Results from MTT assay;
Culturing and treatment of neurons: Cerebellar granule neurons were cultured from 7-8 day old rats as previously described. The neurons were plated in 24-well with poly-L-lysine coated glass coverslips at a density of ˜1 million cells/well in Basal Eagle's Medium with Earle's salts (BME) supplemented with 10% FCS, 25 mM KCl, 2 mM glutamine and […] gentamicin. To prevent mitosis of glial cells, cytosine arabinofuranoside ([…]) was added to culture 16-20 hrs after plating. Neuronal cultures were treated with peptides 6-7 days after plating. For treatment, the cultures were switched to serum-free medium containing 25 mM KCl (referred to as high potassium or HK medium). Although serum is required for proper maturation, after 5 days in culture, the neurons survive normally in the absence of serum provided depolarizing levels of KCl is added.
Cell viability quantification: Cell viability was quantified using the Live/Dead assays with a commercially available kit (Invitrogen). This is a two-color fluorescence assay utilizing two cell-permeable compounds, calcein acetoxymethyl (calcein AM) and ethidium homodimer-1 (EthD-1). Live cells have intracellular esterases that convert non-fluorescent calcein AM to the intensely green fluorescent calcein, which is retained within the cytoplasm of cells. Because dead cells have damaged membranes, EthD-1 enters and is fluorescent when bound to nucleic acids. EthD-1 stains the nuclei of damaged or dead cells. As recommended by the manufacturer, cells plated in wells with cover-slips were incubated in Live/Dead reagent (1 uM calcein AM and 4 uM EthD-1) for 30 min, and then mounted on slides. Cell viability was also analyzed using the MTT [3-(4,5-Dimethylthiazol-2-yl)-2,5-diphenyltetrazolium bromide] assay based on the evaluation of mitochondrial function. MTT assays were performed as previously described. Briefly, MTT (5 mg/ml in culture medium) was added to the culture medium and the cells incubated at 37° C. for 1 h. The assay was stopped by adding lysis buffer [20% sodium dodecyl sulfate (SDS) in 50% N,N-dimethylformamide, pH 4.7]. Absorbance was measured spectrophotometrically at 570 nm after an overnight incubation at room temperature.

[3] = Polymerization kinetics by Thioflavin S (ThS) fluorescence in the presence of heparin; type: physicochemical; settings: for A (first phase / growth curve): ST-peptide according to Eqn. [2]
Method: Aggregation kinetics of T-peptide (filled triangles), V-peptide (filled diamonds), F-peptide (X), Core peptide (open triangles), VV-peptide (open diamonds) and K-peptide (filled circles). […] Solid lines represent fitted values;
Kinetic analysis: Polymerization kinetics were measured by monitoring the increase in Thioflavin S (ThS) fluorescence at 490 nm (440 nm excitation). Slit widths were 15 and 20 nm respectively for excitation and emission. All measurements were carried out at 21° C. with a Perkin Elmer LS50B spectrofluorimeter using a 75 μL quartz cell. Data points were collected at 6 s intervals over the course of the experiment (60 min). In order to initiate polymerization a freshly filtered stock solution was diluted to 10 μM in 200 μL of Buffer A containing 33 μM heparin (Sigma-Aldrich; 3,000 MW) and 100 μM Thioflavin S (ThS). Kinetics data, corrected for the blank, were fit using a non-linear least squares algorithm to a Gompertz-like growth curve {{260 Necula, M. 2004}} (Eqn.)
where y is defined as the fluorescence signal at time t, ti corresponds to the inflection point of the curve, or the time of maximum growth rate, A is the maximum fluorescence observed for a given sample, and b=1/k, where k is the rate constant of aggregation, in units of s^−1. Lag-times were calculated as ti−b. The pre-growth curve exponential, e^(−k′t) was inserted to take into account the slow decrease in fluorescent intensity resulting from ThS bleaching, quenching and gravitational precipitation of the amyloid-ThS complex. Standard errors in fitted parameters were estimated assuming a 10% error in the sum of the squares.

[4] = Transmission electron microscopy (TEM) of peptide aggregates; type: physicochemical; settings: 100 μM peptide in Buffer A, uranyl acetate stain
Method: All peptides were prepared at 100 μM in Buffer A and stained with uranyl acetate;
Transmission Electron Microscopy (TEM): Filtered stock peptide solutions were diluted to 100 μM in 5 mM MOPS containing 0.1% NaN3, 0.15 M NaCl, pH 7.2 (Buffer A) and were incubated at room temperature overnight. Samples were loaded onto carbon-coated Formvar copper grids (200 mesh) and stained with 2% wt/wt uranyl acetate. A JEOL 1200 EX scope interfaced to a digital camera was used to visualize samples.

culture = assay: Neurotoxicity of non-tau related aggregating peptides in culture; type: cell-based; settings: FIG. 13
Excerpt: FIG. 13 is an image of the non-tau related aggregating peptides are not neurotoxic.

[5] = test system: cerebellar granule neurons; assay: MTT assay in cerebellar granule neurons; type: cell-based, rat; settings: 24 h peptide treatment
Method: as §1
Culturing and treatment of neurons: Cerebellar granule neurons were cultured from 7-8 day old rats as previously described. The neurons were plated in 24-well with poly-L-lysine coated glass coverslips at a density of ˜1 million cells/well in Basal Eagle's Medium with Earle's salts (BME) supplemented with 10% FCS, 25 mM KCl, 2 mM glutamine and […] gentamicin. […]
Cell viability quantification: Cell viability was quantified using the Live/Dead assays with a commercially available kit (Invitrogen). This is a two-color fluorescence assay utilizing two cell-permeable compounds, calcein acetoxymethyl (calcein AM) and ethidium homodimer-1 (EthD-1). […] Cell viability was also analyzed using the MTT [3-(4,5-Dimethylthiazol-2-yl)-2,5-diphenyltetrazolium bromide] assay based on the evaluation of mitochondrial function. […] Absorbance was measured spectrophotometrically at 570 nm after an overnight incubation at room temperature.

## Ac-^306VQIVYK^311-NH2 [AcPHF6]
[1]
  critical concentration above which peptide polymerizes into amyloid fibrils: about 2 μM

## CC(=O)N[C@@H](C(=O)N[C@H](CCC(N)=O)C(=O)N[C@@H](C(=O)N[C@@H](C(=O)N[C@@H](C(=O)N[C@H](CCCCN)C(=O)N[C@@H](CCCNC(=N)N)C(=O)N[C@@H](CCCNC(=N)N)C(=O)N[C@@H](CCCNC(=N)N)C(=O)N[C@@H](CCCNC(=N)N)C(=O)N[C@@H](CCCNC(=N)N)C(=O)N[C@@H](CCCNC(=N)N)C(=O)N[C@@H](CCCNC(=N)N)C(=O)N[C@@H](CCCNC(=N)N)C(=O)N[C@@H](CCCNC(=N)N)C(N)=O)C(C)C)C(C)C)C(C)C)C(C)C [VV-peptide, Ac-vqvvvkR9—NH2]
[2]
  neurotoxicity / effect on neuronal survival: neither K-peptide nor VV-peptide reduced neuronal survival

## CC(=O)N[C@@H](CCCNC(=N)N)C(=O)N[C@@H](CCCNC(=N)N)C(=O)N[C@@H](CCCNC(=N)N)C(=O)N[C@@H](CCCNC(=N)N)C(=O)N[C@@H](CCCNC(=N)N)C(=O)N[C@@H](CCCNC(=N)N)C(=O)N[C@@H](CCCNC(=N)N)C(=O)N[C@@H](CCCNC(=N)N)C(=O)N[C@@H](CCCNC(=N)N)C(N)=O [Ac—R9—NH2, reference compound]
[2]
  neurotoxicity / effect on neuronal survival: no effect on neuronal survival

## STVIIE-R9 (STVIIERRRRRRRRR) [ST-peptide, non-tau aggregating peptide previously described by Pastor et al, reference compound]
[3]; ThS fluorescence
  lag time: ~3000 s
  A (first phase / growth curve): 4.9
[3]; according to Eqn. [2]
  A′ (second period of more rapid aggregation): 6.3
[4]; overnight
  diameter of fibrils / filaments / amyloid bodies / fibers: 10-40 nm
[4]
  morphology of aggregates: amyloid sheets which appear to roll into irregular fibers
culture
  neurotoxicity in culture: neither of these two peptides displayed neurotoxicity

## CC[C@@H](C)[C@@H](NC(=O)[C@@H](CCC(N)=O)NC(=O)[C@H](NC(C)=O)C(C)C)C(=O)N[C@@H](C(=O)N[C@H](Cc1ccc(O)cc1)C(=O)N[C@H](CCCCN)C(N)=O)C(C)C [Core-peptide, Ac-vqivyk-NH2] (Ac-[dV][dQ][dI][dV][dY][dK]-NH2)
[2]
  neurotoxicity / effect on neuronal survival: not toxic
[5]
  MTT assay result (mitochondrial function, words): mitochondrial dysfunction

## CC[C@@H](C)[C@@H](NC(=O)[C@@H](CCC(N)=O)NC(=O)[C@H](NC(C)=O)C(C)C)C(=O)N[C@@H](C(=O)N[C@H](CCCCN)C(=O)N[C@H](CCCCN)C(=O)N[C@@H](CCCNC(=N)N)C(=O)N[C@@H](CCCNC(=N)N)C(=O)N[C@@H](CCCNC(=N)N)C(=O)N[C@@H](CCCNC(=N)N)C(=O)N[C@@H](CCCNC(=N)N)C(=O)N[C@@H](CCCNC(=N)N)C(=O)N[C@@H](CCCNC(=N)N)C(=O)N[C@@H](CCCNC(=N)N)C(=O)N[C@@H](CCCNC(=N)N)C(N)=O)C(C)C [K-peptide, Ac-vqivkk-R9—NH2]
[2]
  neurotoxicity / effect on neuronal survival: neither K-peptide nor VV-peptide reduced neuronal survival

## CC(=O)N[C@@H](C(=O)N[C@H](CCC(N)=O)C(=O)N[C@@H](C(=O)N[C@@H](C(=O)N[C@H](Cc1ccc(O)cc1)C(=O)N[C@H](CCCCN)C(=O)N[C@@H](CCCNC(=N)N)C(=O)N[C@@H](CCCNC(=N)N)C(=O)N[C@@H](CCCNC(=N)N)C(=O)N[C@@H](CCCNC(=N)N)C(=O)N[C@@H](CCCNC(=N)N)C(=O)N[C@@H](CCCNC(=N)N)C(=O)N[C@@H](CCCNC(=N)N)C(=O)N[C@@H](CCCNC(=N)N)C(=O)N[C@@H](CCCNC(=N)N)C(N)=O)C(C)C)C(C)C)C(C)C [V-peptide, Ac-vqvvyk-R9—NH2]
[2]
  neurotoxicity / effect on neuronal survival: moderate level of cell death

## Ac-VQIVFK-R9—NH2 (Ac-VQIVFKRRRRRRRRR-NH2) [F-peptide]
[3]; 10 μM peptide, 33 μM heparin, 100 μM ThS, Buffer A pH 7.2, 21° C., NA = no aggregation observed by ThS fluorescence, ±10% error
  A (maximum fluorescence, fitted kinetic parameter): 5.5
[3]; ThS fluorescence, heparin, 10 μM concentration
  self-aggregation in vitro: aggregate in a fashion similar to the Core peptide; also recorded: capable of self-aggregation in vitro
[2]
  neurotoxicity / effect on neuronal survival: induces toxicity

## SQIVYA-R9 (SQIVYARRRRRRRRR) [SQ-peptide, de novo non-tau aggregating peptide]
[3]; ThS fluorescence
  A (first phase / growth curve): 8.8
[4]
  morphology of aggregates: irregular non-uniform filaments similar to V-peptide
culture
  neurotoxicity in culture: neither of these two peptides displayed neurotoxicity
